Values quoted from earlier work, collected in paper PMC6376154 (International Journal for Parasitology: Drugs and Drug …, 2019).
Like-named read-outs stand apart in the source and are kept apart here.

System: P. falciparum 3D7 asexual blood stage
Settings: cited from earlier work
[1] = MMV Malaria Box data sheet (supplement mmc2.xls), ref MMV data sheet
[2] = MMV Malaria Box data sheet (supplement mmc2.xls), ref MMV data sheet, read-out: EC50_nM
[3] = MMV Malaria Box sheet, ref MMV data sheets
[4] = MMV Malaria Box sheet, ref MMV data sheets, read-out: EC50_nM
[5] = source StJude, ref ChEMBL_NTD, read-out: CHEMBL EC50
[6] = ChEMBL-NTD value per source (GNF, GSK, StJude), several values in a cell follow the order of the sources, read-out: CHEMBL EC50
[7] = MMV Malaria Box data sheet, ref MMV data sheets
[8] = MMV Malaria Box data sheet, ref MMV data sheets, read-out: EC50_nM
[9] = source GNF, ref ChEMBL_NTD, read-out: CHEMBL EC50
[10] = source GSK, ref ChEMBL_NTD, read-out: CHEMBL EC50
[11] = value(s) per source (GSK, GNF, StJude), separated by semicolon, ref ChEMBL-NTD, read-out: CHEMBL EC50

SMILES | percent_inh @ 5 uM [3] | EC50 [4] | EC50 [5] | further results
CCN(CC)CCn1c(=N)n(CC(O)c2ccc(Cl)c(Cl)c2)c2ccccc21 (stereo not drawn) [MMV000248] |  |  |  | percent_inh @ 5 uM [1]: 97%; EC50 [2]: 718 nM
CCOc1ccc(Nc2c3ccccc3nc3ccccc23)cc1 [MMV000304] | 97% | 1060 nM | 5720 nM | 
Cc1ccc2nc(C)cc(Nc3cccc(C(F)(F)F)c3)c2c1 [MMV000326] | 98% | 1170 nM | 879 nM | 
CCn1c2c(c(=N)c3c1CCC3)CCCC2 [MMV000340] |  |  |  | EC50 [6]: 3120 nM
CC(C)(C)c1ccc2c(c1)CN(Cc1ccc(Cl)cc1)CO2 [MMV000442] | 98% | 362 nM | 255 nM | 
CCOc1ccc2c(c1)CN(Cc1ccc(Cl)cc1)CO2 [MMV000443] | 97% | 439 nM | 1490 nM | 
CCCCCn1c(=N)n(CC(O)COc2cccc(C)c2)c2ccccc21 (stereo not drawn) [MMV000444] | 96% |  | 2650 nM | 
CCCCCCn1c(=N)n(CC(O)COc2cccc(C)c2)c2ccccc21 (stereo not drawn) [MMV000445] | 98% | 1140 nM | 1970 nM | 
CN(C)CCCNc1c2ccccc2nc2ccccc12 [MMV000448] |  |  | 531 nM | percent_inh @ 5 uM [7]: 95%; EC50 [8]: 235 nM; EC50 [9]: 32.7 nM; EC50 [10]: 1040 nM
CCOc1cc2c(cc1OCC)C(c1cc(Cl)c(O)c(OCC)c1)NCC2 (stereo not drawn) [MMV000481] | 96% | 1330 nM | 3010 nM | 
CCOc1cc2c(cc1OCC)C(c1cc(C)c(O)c(C)c1)NCC2 (stereo not drawn) [MMV000483] | 97% | 683 nM | 1830 nM | 
CCN(CC)c1cc(C)c2cc(NC(=O)c3cccc(OC)c3)ccc2n1 [MMV000498] |  |  |  | percent_inh @ 5 uM [1]: 97%; EC50 [11]: 4770 nM
CCCN(CCC)CCCNC(=O)c1cc2c(-c3ccc(OC)c(OC)c3)nn(C)c2s1 [MMV000561] |  |  |  | percent_inh @ 5 uM [1]: 98%; EC50 [2]: 1430 nM; EC50 [11]: 4040 nM
COc1ccc(C2Sc3ccccc3N=C3C2=C(O)c2ccccc23)cc1 (stereo not drawn) [MMV000563] |  |  |  | percent_inh @ 5 uM [7]: 96%; EC50 [8]: 845 nM; EC50 [9]: 238 nM
CCc1ccc(Nc2cc(C)c3ccc(O)cc3n2)cc1 [MMV000570] |  |  | 732 nM | percent_inh @ 5 uM [7]: 98%; EC50 [8]: 194 nM
COc1ccc(-c2cc(=O)oc3c4c(ccc23)OCN(Cc2ccc(F)cc2)C4)cc1 [MMV000604] | 96% | 735 nM | 5210 nM | 
COc1ccc(C(O)(CCC(C)C)C(CN2CCOCC2)c2ccc(Cl)cc2)cc1 (stereo not drawn) [MMV000617] |  |  |  | EC50 [6]: 4610 nM
CCCCC(O)(c1ccc(Cl)cc1)C(CN1CCOCC1)c1ccc(Cl)cc1 (stereo not drawn) [MMV000619] | 98% | 1380 nM | 4010 nM | 
CC(O)(c1ccc(Cl)cc1)C(CN1CCCCC1)c1ccccc1 (stereo not drawn) [MMV000620] |  |  | 916 nM | percent_inh @ 5 uM [7]: 94%
CCCCCCC(O)(c1ccc(F)cc1)C(CN1CCOCC1)c1ccccc1 (stereo not drawn) [MMV000621] | 93% |  | 3180 nM | 
CC1CCCCN1CCCNC(=O)c1ccc2c(c1)sc1nc(-c3ccc(F)cc3)cn12 (stereo not drawn) [MMV000634] |  |  | 634 nM | percent_inh @ 5 uM [7]: 98%; EC50 [8]: 648 nM
COc1ccc(NC(=O)C2c3ccccc3C(=O)N(CC(C)C)C2c2cccs2)cc1Cl (stereo not drawn) [MMV000642] |  |  | 119 nM | percent_inh @ 5 uM [7]: 100%; EC50 [8]: 20.2 nM; EC50 [9]: 91.4 nM
COc1ccccc1CNC(=O)C1c2ccccc2C(=O)N(CC(C)C)C1c1cccs1 (stereo not drawn) [MMV000648] |  |  |  | percent_inh @ 5 uM [1]: 97%; EC50 [11]: 3160 nM
CCOc1ccccc1CNC(=O)C1c2ccccc2C(=O)N(CC(C)C)C1c1cccs1 (stereo not drawn) [MMV000653] |  |  | 1430 nM | percent_inh @ 5 uM [7]: 97%; EC50 [8]: 1320 nM

SMILES | percent_inh @ 5 uM [3] | EC50 [4] | EC50 [5] | further results
COc1ccc(NC(=O)C2c3ccccc3C(=O)N(CC(C)C)C2c2cccs2)cc1 (stereo not drawn) [MMV000662] |  |  | 102 nM | percent_inh @ 5 uM [7]: 100%; EC50 [8]: 36.7 nM
Cc1ccc(C2CC(C(F)(F)F)n3nc(C(=O)N4CCN(C(c5ccccc5)c5ccccc5)CC4)cc3N2)cc1 (stereo not drawn) [MMV000699] | 98% | 454 nM | 668 nM | 
Cc1ccnc(NC(c2cccc(OCc3ccccc3)c2)c2ccc3cccnc3c2O)c1 (stereo not drawn) [MMV000720] | 97% | 1020 nM | 1810 nM | EC50 [10]: 864 nM
Oc1c(CN2CCN(c3ccccc3F)CC2)cc(Br)c2cccnc12 [MMV000760] | 91% |  | 3760 nM | 
CCCOCc1cc(CN2CCN(c3cccc(Cl)c3)CC2)c(O)c2ncccc12 [MMV000787] |  |  |  | EC50 [6]: 1100 nM
CC(C)OCc1cc(CN2CCN(c3cccc(Cl)c3)CC2)c(O)c2ncccc12 [MMV000788] |  |  |  | percent_inh @ 5 uM [1]: 98%; EC50 [2]: 697 nM; EC50 [11]: 941 nM
OC(CNCc1ccccc1)Cn1c2ccccc2c2ccccc21 (stereo not drawn) [MMV000839] | 95% | 1080 nM | 3760 nM | 
OC(CNC1CCCC1)Cn1c2ccccc2c2ccccc21 (stereo not drawn) [MMV000848] |  |  |  | percent_inh @ 5 uM [1]: 97%; EC50 [2]: 660 nM; EC50 [11]: 1080 nM
Cc1ccc(NC(=O)Nc2cccc(Cl)c2)cc1F [MMV000911] |  |  |  | percent_inh @ 5 uM [1]: 52%; EC50 [11]: 15000 nM
COc1ccc2c(c1OC)C(=O)N1c3ccccc3N=C(c3ccc(C)cc3)CC21 (stereo not drawn) [MMV000917] | 93% | 1240 nM | 2530 nM | 
COc1ccc(Nc2nc(NCc3ccccc3)c3ccccc3n2)cc1 [MMV000963] |  | 589 nM | 1310 nM | EC50 [9]: 212 nM
O=C1CC(O)(C(F)(F)C(F)(F)F)Oc2ccccc21 (stereo not drawn) [MMV000972] | 95% |  | 2570 nM | 
Cc1ccc(Nc2nc(NCCO)c3ccccc3n2)cc1C [MMV001038] |  |  | 843 nM | EC50 [8]: 428 nM; EC50 [9]: 175 nM
CC(C)c1ccc(CNCC(O)c2ccccc2)cc1 (stereo not drawn) [MMV001049] | 96% | 1260 nM | 1350 nM | 
CCOc1cccc2sc(N(Cc3cccnc3)C(=O)C3CCCCC3)nc12 [MMV001230] |  |  |  | percent_inh @ 5 uM [1]: 94%; EC50 [11]: 3040 nM
COc1ccc2sc(N(Cc3cccnc3)C(=O)c3ccc(C#N)cc3)nc2c1 [MMV001239] |  |  |  | EC50 [6]: 15000 nM
COc1ccc(C)c2sc(N(Cc3cccnc3)C(=O)c3ccc(C#N)cc3)nc12 [MMV001241] | 91% |  | 15000 nM | 
CSc1ccccc1C(=O)Nc1nc(-c2ccccn2)cs1 [MMV001246] |  |  | 6820 nM | percent_inh @ 5 uM [7]: 98%; EC50 [8]: 206 nM
CCCCc1ccc(NS(=O)(=O)c2cc3c4c(c2)CCN4C(=O)CC3)cc1 [MMV001255] |  |  | 15000 nM | percent_inh @ 5 uM [7]: 96%; EC50 [8]: 538 nM
O=C(Nc1ccc(Br)cc1)Nc1cccc(Cl)c1 [MMV001318] | 94% |  | 15000 nM | 
CC1CC(C)CN(C(=O)c2ccc(Cl)cc2Cl)C1 (stereo not drawn) [MMV001344] |  |  |  | percent_inh @ 5 uM [1]: 95%; EC50 [2]: 756 nM; EC50 [11]: 1320 nM
CCN(CC)CCNc1ccnc2cc(Cl)ccc12 [MMV006087] |  |  |  | EC50 [8]: 58.1 nM; EC50 [9]: 7.16 nM
c1ccc(CNc2nc(Nc3ccccc3)nc3ccccc23)cc1 [MMV006169] |  |  |  | EC50 [6]: 158 nM
CN1CCN(c2ccc(Nc3c4ccccc4nc4ccccc34)cc2)CC1 [MMV006172] |  |  |  | percent_inh @ 5 uM [7]: 97%; EC50 [8]: 142 nM; EC50 [9]: 56.7 nM; EC50 [10]: 645 nM
